From US7288659B2, “Acylaminothiazole derivatives, their preparation and therapeutic use” (Sanofi-Aventis, priority 2001, dated 2007) come the findings set out here.

`CCC[C@H](NC(=O)Cc1cc(F)cc(F)c1)C(=O)Nc1nc(C)c(-c2ccccc2COC2CCCCC2)s1` [compound 52, (2S)-N-(5-{2-[(cyclohexyloxy)methyl]phenyl}-4-methyl-1,3-thiazol-2-yl)-2-{[2-(3,5-difluorophenyl)-acetyl]amino}pentanamide]: the melting point (in general, the temperature of the solid-liquid transition) is 94 °C. In the case of `CC(NC(=O)Cc1cc(F)cc(F)c1)C(=O)Nc1ncc(-c2ccccc2COCC2CCCCC2)s1` (stereo not drawn) [compound 8, N-(5-{2-[(cyclohexylmethoxy)methyl]phenyl}-1,3-thiazol-2-yl)-2-{[2-(3,5-difluorophenyl)acetyl]amino}-propanamide], the melting point turned out to be 143 °C.

In the case of `CCC[C@H](NC(=O)[C@@H](O)c1cc(F)cc(F)c1)C(=O)Nc1ncc(-c2ccccc2COC2CCCCC2)s1` [compound 55, (2S)-N-(5-{2-[(cyclohexyloxy)methyl]phenyl}-1,3-thiazol-2-yl)-2-{[(2S)-2-(3,5-difluorophenyl)-2-hydroxyacetyl]amino}pentanamide], the melting point came to 141 °C. The result for `Cc1ccc(CC(=O)N[C@@H](C)C(=O)Nc2ncc(-c3ccccc3COC3CCCCC3)s2)cc1` [compound 17, (2S)-N-(5-{2-[(cyclohexyloxy)methyl]phenyl}-1,3-thiazol-2-yl)-2-{[2-(4-methylphenyl)acetyl]amino}-propanamide] reads 239 °C; that for `C[C@H](NC(=O)Cc1cc(F)cc(F)c1)C(=O)Nc1ncc(-c2ccccc2COC2CCCC2)s1` [compound 49, (2S)-N-(5-{2-[(cyclopentyloxy)methyl]phenyl}-1,3-thiazol-2-yl)-2-{[2-(3,5-difluorophenyl)acetyl]amino}-propanamide], 236 °C; that for `CC(C)COCc1ccccc1-c1cnc(NC(=O)C(C)NC(=O)Cc2cc(F)cc(F)c2)s1` (stereo not drawn) [compound 4, 2-{[2-(3,5-difluorophenyl)acetyl]amino}-N-{5-[2-(isobutoxymethyl)phenyl]-1,3-thiazol-2-yl}propanamide], 181 °C. The result for `COC1CCC(OCc2ccccc2-c2cnc(NC(=O)[C@H](C)NC(=O)Cc3cc(F)cc(F)c3)s2)CC1` (stereo partly drawn) [compound 73, (2S)-2-{[2-(3,5-difluorophenyl)acetyl]amino}-N-[5-(2-{[(4-methoxycyclohexyl)oxy]methyl}phenyl]-1,3-thiazol-2-yl}propanamide] reads 149 °C; that for `CCc1nc(NC(=O)[C@H](C)NC(=O)Cc2cc(F)cc(F)c2)sc1-c1ccccc1COC1CCCCC1` [compound 62, (2S)-N-(5-{2-[(cyclohexyloxy)methyl]phenyl}-4-ethyl-1,3-thiazol-2-yl)-2-{[2-(3,5-difluorophenyl)-acetyl]amino}propanamide], 70 °C; that for `CC(C)OCc1cccc(-c2cnc(NC(=O)[C@H](C)NC(=O)Cc3cc(F)cc(F)c3)s2)c1` [compound 45, (2S)-2-{[2-(3,5-difluorophenyl)acetyl]amino}-N-(5-{3-(isopropoxymethyl)phenyl}-1,3-thiazol-2-yl)propanamide], 136 °C. The result for `CC(NC(=O)Cc1cc(F)cc(F)c1)C(=O)Nc1ncc(-c2ccccc2COCc2ccccc2)s1` (stereo not drawn) [Compound No. 6, N-(5-{2-[(benzyloxy)methyl]phenyl}-1,3-thiazol-2-yl)-2-{[2-(3,5-difluorophenyl)acetyl]amino}propanamide] reads 147 °C; that for `CCC[C@H](NC(=O)Cc1cc(F)cc(F)c1)C(=O)Nc1nc(C)c(-c2ccccc2COC(C)C)s1` [compound 71, (2S)-2-{[2-(3,5-difluorophenyl)acetyl]amino}-N-{5-[2-(isopropoxymethyl)phenyl]-4-methyl-1,3-thiazol-2-yl}pentanamide], 66.6 °C; that for `CC[C@H](NC(=O)Cc1cc(F)cc(F)c1)C(=O)Nc1ncc(-c2ccccc2COC(C)C)s1` [compound 70, (2S)-2-{[2-(3,5-difluorophenyl)acetyl]amino}-N-{5-[2-(isopropoxymethyl)phenyl]-1,3-thiazol-2-yl}butanamide], 73 °C.

Turning to `CCC[C@H](NC(=O)C(F)(F)c1cc(F)cc(F)c1)C(=O)Nc1ncc(-c2ccccc2COC2CCCCC2)s1` [compound 74, (2S)-N-(5-{2-[(cyclohexyloxy)methyl]phenyl}-1,3-thiazol-2-yl)-2-{[2-(3,5-difluorophenyl)-2,2-difluoroacetyl]amino}pentanamide], the melting point turned out to be 68 °C.

Compound `CC(NC(=O)Cc1cc(F)cc(F)c1)C(=O)Nc1ncc(-c2ccccc2COc2ccccc2)s1` (stereo not drawn) [Compound No. 5, 2-{[2-(3,5-difluorophenyl)acetyl]amino}-N-{5-[2-(phenoxymethyl)phenyl]-1,3-thiazol-2-yl}propanamide] returned a melting point of 114 °C. The result for `Cc1cccc(CC(=O)N[C@@H](C)C(=O)Nc2ncc(-c3ccccc3COC3CCCCC3)s2)c1` [compound 16, (2S)-N-(5-{2-[(cyclohexyloxy)methyl]phenyl}-1,3-thiazol-2-yl)-2-{[2-(3-methylphenyl)acetyl]amino}-propanamide] reads 98 °C. The result for `CCC[C@H](NC(=O)Cc1cc(F)cc(F)c1)C(=O)Nc1ncc(-c2ccccc2COC2CCCCC2)s1` [compound 42, (2S)-N-(5-{2-[(cyclohexyloxy)methyl]phenyl}-1,3-thiazol-2-yl)-2-{[2-(3,5-difluorophenyl)acetyl]amino}-pentanamide] reads 134 °C; that for `CCC[C@H](NC(=O)Cc1cc(F)cc(F)c1)C(=O)Nc1nc(C(C)C)c(-c2ccccc2COC2CCCCC2)s1` [compound 63, (2S)-N-(5-{2-[(cyclohexyloxy)methyl]phenyl}-4-isopropyl-1,3-thiazol-2-yl)-2-{[2-(3,5-difluorophenyl)-acetyl]amino}pentanamide], 74 °C.

`COc1cc(CC(=O)N[C@@H](C)C(=O)Nc2ncc(-c3ccccc3COC3CCCCC3)s2)cc(OC)c1` [compound 35, (2S)-N-(5-{2-[(cyclohexyloxy)methyl]phenyl}-1,3-thiazol-2-yl)-2-{[2-(3,5-dimethoxyphenyl)acetyl]amino}-propanamide]: the melting point was 73 °C. In turn, `C[C@H](NC(=O)Cc1cc(F)cc(F)c1)C(=O)Nc1ncc(-c2ccccc2CSC2CCCCC2)s1` [compound 54, (2S)-N-(5-{2-[(cyclohexylsulfanyl)methyl]phenyl}-1,3-thiazol-2-yl)-2-{[2-(3,5-difluorophenyl)acetyl]-amino}propanamide] returned a melting point of 91.6 °C. The result for `CC[C@H](NC(=O)Cc1cc(F)cc(F)c1)C(=O)Nc1nc(C)c(-c2ccccc2COC(C)C)s1` [compound 69, (2S)-2-{[2-(3,5-difluorophenyl)acetyl]amino}-N-{5-[2-(isopropoxymethyl)phenyl]-4-methyl-1,3-thiazol-2-yl}butanamide] reads 79 °C; that for `Cc1nc(NC(=O)[C@H](C)NC(=O)Cc2cc(F)cc(F)c2)sc1-c1ccccc1COC1CCCCC1` [compound 23, (2S)-N-(5-{2-[(cyclohexyloxy)methyl]phenyl}-4-methyl-1,3-thiazol-2-yl)-2-{[2-(3,5-difluorophenyl)-acetyl]amino}propanamide], 85 °C. The result for `CCC[C@H](NC(=O)[C@H](O)c1cc(F)cc(F)c1)C(=O)Nc1ncc(-c2ccccc2COC2CCCCC2)s1` [compound 56, (2S)-N-(5-{2-[(cyclohexyloxy)methyl]phenyl}-1,3-thiazol-2-yl)-2-{[(2R)-2-(3,5-difluorophenyl)-2-hydroxyacetyl]amino}pentanamide] reads 112 °C; that for `C[C@H](NC(=O)Cc1cc(F)cc(F)c1)C(=O)Nc1ncc(-c2ccccc2COC2CCCCC2)s1` [Compound No. 26, (2S)-N-(5-{2-[(cyclohexyloxy)methyl]phenyl}-1,3-thiazol-2-yl)-2-{[2-(3,5-difluorophenyl)acetyl]amino}-propanamide], 140 °C; that for `C[C@H](NC(=O)Cc1cc(F)cc(F)c1)C(=O)Nc1ncc(-c2ccc(COC3CCCCC3)cc2)s1` [compound 39, (2S)-N-(5-{4-[(cyclohexyloxy)methyl]phenyl}-1,3-thiazol-2-yl)-2-{[2-(3,5-difluorophenyl)acetyl]amino}-propanamide], 155 °C. The result for `CCC[C@H](NC(=O)C(F)c1cc(F)cc(F)c1)C(=O)Nc1ncc(-c2ccccc2COC2CCCCC2)s1` (stereo partly drawn) [compound 67, (2S)-N-(5-{2-[(cyclohexyloxy)methyl]phenyl}-1,3-thiazol-2-yl)-2-{[2-(3,5-difluorophenyl)-2-fluoroacetyl]amino}pentanamide] reads 91 °C; that for `CCC[C@H](NC(=O)C(C)c1cc(F)cc(F)c1)C(=O)Nc1ncc(-c2ccccc2COC2CCCCC2)s1` (stereo partly drawn) [Compound No. 58, (2S)-N-(5-{2-[(cyclohexyloxy)methyl]phenyl}-1,3-thiazol-2-yl)-2-{[2-(3,5-difluorophenyl)propanoyl]-amino}pentanamide], 88 °C; that for `C[C@H](NC(=O)[C@@H](F)c1cc(F)cc(F)c1)C(=O)Nc1ncc(-c2ccccc2COC2CCCCC2)s1` [Compound No. 66, (2S)-N-(5-{2-[(cyclohexyloxy)methyl]phenyl}-1,3-thiazol-2-yl)-2-{[(2S)-2-(3,5-difluorophenyl)-2-fluoroacetyl]amino}propanamide], 158 °C. `CCOCc1ccccc1-c1cnc(NC(=O)[C@H](C)NC(=O)Cc2cc(F)cc(F)c2)s1` [compound 41, (2S)-2-{[2-(3,5-difluorophenyl)acetyl]amino)-N-(5-[2-(ethoxymethyl)phenyl]-1,3-thiazol-2-yl}propanamide] gave a melting point of 173 °C. The result for `C[C@H](NC(=O)[C@H](O)c1cc(F)cc(F)c1)C(=O)Nc1ncc(-c2ccccc2COC2CCCCC2)s1` (racemic) [Compound No. 50, (2S)-N-(5-{2-[(cyclohexyloxy)methyl]phenyl}-1,3-thiazol-2-yl)-2-{[(2R)-2-(3,5-difluorophenyl)-2-hydroxyacetyl]amino}propanamide] reads 169 °C; that for `Cc1nc(NC(=O)[C@H](C)NC(=O)Cc2cc(F)cc(F)c2)sc1-c1ccccc1COC1CCCC1` [compound 28, (2S)-N-(5-{2-[(cyclopentyloxy)methyl]phenyl}-4-methyl-1,3-thiazol-2-yl)-2-{[2-(3,5-difluorophenyl)-acetyl]amino}propanamide], 141 °C.
